Reference: patent US20050042256A1, “Lipid blends and food products containing oleic fatty acid and omega-6 fatty acids, designed to increase the intramyocellular lipid level” (priority 2001, published 2005)

Tested on: Human skeletal muscle cells
Assay: IMCL (triacylglycerol) accumulation in muscle cells incubated with fatty acids
Assay type: cell-based
Details: 0.5 mM FFA salt bound to albumin, DMEM + 25 mM glucose, 24 hrs at 37° C; FIGURE 1
Method: Human skeletal muscle cells were used as a model to test the effect that different fatty acids (as precursors) may have on the extent of muscle triglyceride storage.
Primary cultures were initiated from a bank of satellite cells of muscle biopsies obtained from patients free of muscle disease. Aneural muscle cultures were established in a monolayer, then they were grown in a DMEM-M-199 medium, 3:1, supplemented with 10% fetal bovine serum, 10 μg/ml insulin, 2 mM glutamine, 25 ng/ml fibroblast growth factor, and 10 ng/ml epidermal growth factor. Immediately after myoblast fusion, cells were rinsed in Hank's balanced salt solution and a medium devoid of FGF, EGF, and glutamine was added. Muscle cultures were maintained in this medium for up to 4 weeks.
Cells were incubated with DMEM+glucose (25 mM)+0.5 mM FFA salt bound to albumin (in independent experiments for each FFA), for 24 hrs at 37° C. As examples for the fatty acids used in blend 1 (promoting IMCL storage), oleate (C18:1 cis), linoleate (C18:2 cis/cis), n-6 linoleate and n-3 linoleate.
As examples for the fatty acids used in blend 2 (inhibiting IMCL storage), octanoate (C8:0), palinitate (C16:0) and stearate (C18:0).
After incubation, cell lipids were extracted according to the method of Bligh and Dyer (Can. J. Biochem Physiol 37: 911-917, 1959). To determine the IMCL content, extracts were prepared by scraping cell monolayers in a buffer consisting of 50 mM Tris, 100 mM KCl, 20 mM KF, 0.5 mM EDTA and 0.05% Lubrol PX, pH 7.9, and they were sonicated three times for 5 seconds. Homogenates were centrifuged at 11′000 g for 15 min and the resulting supernatants were collected. Total triacylglycerol (i.e. IMCL) was measured with a Cobas-Bio autoanalyzer with a GPO-Trinder kit, with triolein resuspended in the extraction buffer as a standard. The intramyocellular nature of the triglycerides was evidenced by histo-chemical staining with Sudan III in 70% ethanol.

| SMILES | accumulation / synthesis of IMCL (total triacylglycerol) |
| --- | --- |
| CCCCCCCCCCCCCCCCCC(=O)O [stearate, stearate (C18:0)] | moderate synthesis |
| CCCCCCCC(=O)O [octanoate, octanoate (C8:0)] | no accumulation of IMCL |
| CCCCCCCC/C=C\CCCCCCCC(=O)O [oleate, oleate (C18:1 cis)] | notably higher synthesis |
| CCCCC/C=C\C/C=C\CCCCCCCC(=O)O [linoleate, linoleate (C18:2 cis/cis)] | notably higher synthesis |
